Results from patent publication US20250205344A1, “2,4-DIOXOTETRAHYDROPYRIMIDINYL DERATIVES AS DEGRONS IN PROTACS” (GLAXOSMITHKLINE INTELLECTUAL PROPERTY DEVELOPMENT LIMITED, priority 2022, published 2025).
Where a name gives a salt, the structure may show the parent alone.

Target: T1, Androgen Receptor (Homo sapiens, UniProt P10275, T878A)
T1 construct: the AR gene was modified, using CRISPR/Cas9 editing, so the expressed AR protein included an 11 amino acid HiBiT tag; endogenous in cells; host or cells: clonal LnCaP-derived line, AR gene edited by CRISPR/Cas9
Experiment: Androgen Receptor Degradation Assay (Nano-Glo HiBiT)
Format: cell-based
Settings: LNCaP, 18 h, HiBiT-tagged AR in human LnCaP cells, read-out: mean asymptote max
Procedure: Degradation of Androgen Receptor protein in human LnCaP cells treated with PROTACs was quantified using the Nano-Glo® HiBiT Lytic Detection System (Promega) in 384 well assay plate format. A clonal LnCaP derived cell line was first established in which the AR gene was modified, using CRISPR/Cas9 editing, so the expressed AR protein included an 11 amino acid HiBiT tag at its amino-terminus. 10 mM DMSO stock solutions of PROTACs were prepared and diluted across an 11 concentration, 3 fold increment range, and 25 nL dispensed into a white opaque bottomed 384 well assay plate (Thermofisher) using an acoustic ECHO dispenser (Labcyte). […] For the assay, cells were detached from flask and resuspended with assay medium (FluoroBrite™ DMEM supplemented with 10% heat inactivated FBS, penicillin 50 U/mL and streptomycin 50 ug/mL (Thermofisher)). The cell suspension was centrifuged at 400 g for 5 min and the pellet resuspended in assay medium. 25 μL of cell suspension containing 10,000 cells was dispensed into each well of the assay plate containing the test compounds, which was then incubated for 18 h at 37° C./5% CO2. Control wells were included on each assay plate, with assay medium without cells being the no AR remaining 100% effect control, and cells treated with DMSO vehicle only, without PROTAC, the 0% effect control. 25 μL of Nano-Glo® HiBiT lysis buffer supplemented with LgBiT protein and Nano-Glo® substrate (Promega) was added to each well and the plate shaken at 500 rpm for 10 min at room temperature. The intensity of luminescence was measured using a PHERAstar microplate reader (BMG Labtech) and the % AR protein remaining in each well calculated by normalising the raw luminescence value to the above control wells. Parameters corresponding to the potency and efficacy estimates of the PROTACs were obtained from these normalised luminescence values using software (IDBS ActivityBase). These included the DC50 and the Dmax estimates. Two versions of the DC50, called relative DC50 and absolute DC50, were typically generated. These are the inflection point of a fitted 4 parameter sigmoidal response curve and the interpolated concentration of PROTAC corresponding to 50% of the protein being degraded, respectively. The Dmax parameter was the maximum experimentally observed degradation and the asymptote max parameter the fitted response curve asymptote maximum.

T1 sequence (P10275 whole entry T878A): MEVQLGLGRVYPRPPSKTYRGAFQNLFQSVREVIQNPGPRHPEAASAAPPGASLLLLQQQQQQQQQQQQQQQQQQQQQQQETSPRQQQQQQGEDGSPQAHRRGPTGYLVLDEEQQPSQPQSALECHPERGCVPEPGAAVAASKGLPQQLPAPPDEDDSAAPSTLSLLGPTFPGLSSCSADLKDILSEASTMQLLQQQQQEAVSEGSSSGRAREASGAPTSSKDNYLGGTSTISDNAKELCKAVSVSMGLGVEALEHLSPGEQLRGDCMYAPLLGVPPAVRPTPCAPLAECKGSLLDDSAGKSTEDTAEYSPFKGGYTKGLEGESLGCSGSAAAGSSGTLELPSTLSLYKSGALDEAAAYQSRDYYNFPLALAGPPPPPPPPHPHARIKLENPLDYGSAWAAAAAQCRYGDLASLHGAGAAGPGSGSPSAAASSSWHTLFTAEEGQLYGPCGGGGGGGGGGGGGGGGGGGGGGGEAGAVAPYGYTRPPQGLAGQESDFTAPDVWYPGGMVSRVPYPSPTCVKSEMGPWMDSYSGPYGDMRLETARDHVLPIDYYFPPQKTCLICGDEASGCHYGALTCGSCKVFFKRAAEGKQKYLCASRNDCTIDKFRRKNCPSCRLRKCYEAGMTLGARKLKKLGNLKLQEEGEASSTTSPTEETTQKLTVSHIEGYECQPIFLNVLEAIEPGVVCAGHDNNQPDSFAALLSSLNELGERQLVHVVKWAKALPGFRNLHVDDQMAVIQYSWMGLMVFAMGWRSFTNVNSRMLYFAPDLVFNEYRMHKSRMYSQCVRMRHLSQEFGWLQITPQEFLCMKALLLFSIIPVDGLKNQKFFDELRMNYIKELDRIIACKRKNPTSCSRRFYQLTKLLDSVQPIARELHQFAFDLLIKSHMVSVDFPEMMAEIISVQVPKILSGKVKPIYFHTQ
T1 sequence (Q96SW2 whole entry partner): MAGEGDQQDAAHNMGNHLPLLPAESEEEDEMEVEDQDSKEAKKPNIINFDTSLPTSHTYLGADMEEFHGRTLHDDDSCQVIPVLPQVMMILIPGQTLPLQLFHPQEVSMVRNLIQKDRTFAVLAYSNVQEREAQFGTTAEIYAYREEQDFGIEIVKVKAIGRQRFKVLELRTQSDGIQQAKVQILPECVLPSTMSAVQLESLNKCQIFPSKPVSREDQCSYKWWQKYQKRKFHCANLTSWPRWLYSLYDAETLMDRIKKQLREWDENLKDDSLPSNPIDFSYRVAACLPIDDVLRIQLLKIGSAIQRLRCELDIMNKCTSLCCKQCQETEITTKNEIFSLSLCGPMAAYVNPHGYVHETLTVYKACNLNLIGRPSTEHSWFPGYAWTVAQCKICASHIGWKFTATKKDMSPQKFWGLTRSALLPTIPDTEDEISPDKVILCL
T1 sequence (Q16531 whole entry partner): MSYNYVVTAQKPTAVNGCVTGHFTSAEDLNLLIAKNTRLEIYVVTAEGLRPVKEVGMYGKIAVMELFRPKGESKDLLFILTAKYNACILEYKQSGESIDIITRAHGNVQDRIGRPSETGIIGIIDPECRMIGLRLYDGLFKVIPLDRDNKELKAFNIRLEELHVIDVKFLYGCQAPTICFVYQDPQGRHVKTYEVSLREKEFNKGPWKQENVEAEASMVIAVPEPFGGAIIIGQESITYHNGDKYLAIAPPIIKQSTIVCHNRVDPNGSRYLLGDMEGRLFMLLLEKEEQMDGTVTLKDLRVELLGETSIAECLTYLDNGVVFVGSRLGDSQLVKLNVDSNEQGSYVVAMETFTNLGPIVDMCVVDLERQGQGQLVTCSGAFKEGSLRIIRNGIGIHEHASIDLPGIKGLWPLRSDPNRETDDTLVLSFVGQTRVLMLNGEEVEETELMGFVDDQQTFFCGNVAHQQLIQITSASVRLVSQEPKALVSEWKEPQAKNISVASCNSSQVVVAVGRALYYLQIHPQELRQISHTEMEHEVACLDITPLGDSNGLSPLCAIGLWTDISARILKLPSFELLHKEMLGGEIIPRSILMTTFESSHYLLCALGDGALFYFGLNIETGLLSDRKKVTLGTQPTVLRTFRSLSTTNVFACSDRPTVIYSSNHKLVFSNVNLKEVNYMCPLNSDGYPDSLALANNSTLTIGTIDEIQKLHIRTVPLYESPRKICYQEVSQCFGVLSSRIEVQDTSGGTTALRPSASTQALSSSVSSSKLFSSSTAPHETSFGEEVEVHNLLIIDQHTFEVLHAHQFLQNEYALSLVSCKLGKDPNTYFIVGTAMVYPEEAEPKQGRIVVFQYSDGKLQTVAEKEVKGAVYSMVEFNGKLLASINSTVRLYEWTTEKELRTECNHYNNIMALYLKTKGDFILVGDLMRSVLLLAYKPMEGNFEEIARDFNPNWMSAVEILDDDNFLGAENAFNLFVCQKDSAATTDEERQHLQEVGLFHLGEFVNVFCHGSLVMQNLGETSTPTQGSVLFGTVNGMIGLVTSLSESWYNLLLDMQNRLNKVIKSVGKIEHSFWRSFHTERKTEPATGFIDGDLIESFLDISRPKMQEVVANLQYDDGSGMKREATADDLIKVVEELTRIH

Row | SMILES | Dmax
1 | C[C@@H]1CN(C(=O)Nc2cnc(N3CCC(CN4CCC(n5ccc6c(N7CCC(=O)NC7=O)cccc65)CC4)CC3)nc2)[C@@H](C)CN1c1ccc(C#N)c(Cl)c1 (racemic) [EAR114, rac-(trans)-4-(3-Chloro-4-cyanophenyl)-N-(2-(4-((4-(4-(2,4-dioxotetrahydropyrimidin-1(2H)-yl)-1H-indol-1-yl)piperidin-1-yl)methyl)piperidin-1-yl)pyrimidin-5-yl)-2,5-dimethylpiperazine-1-carboxamide] | ≥ 50%
2 | C[C@@H]1CN(c2ccc(C#N)c(Cl)c2)[C@@H](C)CN1C(=O)Nc1ccc(N2CCC(CCN3CCC(n4ccc5c(N6CCC(=O)NC6=O)cccc54)CC3)CC2)nc1 (racemic) [EAR115, rac-(trans)-4-(3-Chloro-4-cyanophenyl)-N-(6-(4-(2-(4-(4-(2,4-dioxotetrahydropyrimidin-1(2H)-yl)-1H-indol-1-yl)piperidin-1-yl)ethyl)piperidin-1-yl)pyridin-3-yl)-2,5-dimethylpiperazine-1-carboxamide] | ≥ 50%
3 | N#Cc1ccc(O[C@H]2CC[C@H](NC(=O)c3ccc(N4CCC[C@H](CN5CCC(n6ncc7c(N8CCC(=O)NC8=O)cccc76)CC5)C4)nn3)CC2)cc1Cl (single isomer, unassigned) [EAR136] | ≥ 50%
4 | N#Cc1ccc(O[C@H]2CC[C@H](NC(=O)c3ccc(N4CCC[C@@H](CN5CCC(n6ncc7c(N8CCC(=O)NC8=O)cccc76)CC5)C4)nn3)CC2)cc1Cl (single isomer, unassigned) [EAR137] | ≥ 50%
5 | N#Cc1ccc(O[C@H]2CC[C@H](NC(=O)c3ccc(C4CCN(C(=O)CN5CCC(n6ccc7c(N8CCC(=O)NC8=O)cccc76)CC5)CC4)cc3)CC2)cc1Cl [AR1, N-((1r,4r)-4-(3-Chloro-4-cyanophenoxy)cyclohexyl)-4-(1-(2-(4-(4-(2,4-dioxotetrahydropyrimidin-1(2H)-yl)-1H-indol-1-yl)piperidin-1-yl)acetyl)piperidin-4-yl)benzamide] | ≥ 50%
6 | N#Cc1ccc(O[C@H]2CC[C@H](NC(=O)c3cccc(OC4CCN(C(=O)CN5CCC(n6ccc7c(N8CCC(=O)NC8=O)cccc76)CC5)CC4)c3)CC2)cc1Cl [AR2, N-((1r,4r)-4-(3-Chloro-4-cyanophenoxy)cyclohexyl)-3-((1-(2-(4-(4-(2,4-dioxotetrahydropyrimidin-1(2H)-yl)-1H-indol-1-yl)piperidin-1-yl)acetyl)piperidin-4-yl)oxy)benzamide] | ≥ 50%
7 | N#Cc1ccc(O[C@H]2CC[C@H](NC(=O)c3cccc(C4CCN(C(=O)CN5CCC(n6ccc7c(N8CCC(=O)NC8=O)cccc76)CC5)CC4)c3)CC2)cc1Cl [AR3, N-((1r,4r)-4-(3-Chloro-4-cyanophenoxy)cyclohexyl)-3-(1-(2-(4-(4-(2,4-dioxotetrahydropyrimidin-1(2H)-yl)-1H-indol-1-yl)piperidin-1-yl)acetyl)piperidin-4-yl)benzamide] | ≥ 50%
8 | N#Cc1ccc(O[C@H]2CC[C@H](NC(=O)c3ccc4c(c3)CCN(C(=O)CN3CCC(n5ccc6c(N7CCC(=O)NC7=O)cccc65)CC3)C4)CC2)cc1Cl [AR5, N-((1r,4r)-4-(3-Chloro-4-cyanophenoxy)cyclohexyl)-2-(2-(4-(4-(2,4-dioxotetrahydropyrimidin-1(2H)-yl)-1H-indol-1-yl)piperidin-1-yl)acetyl)-1,2,3,4-tetrahydroisoquinoline-6-carboxamide] | ≥ 50%
9 | N#Cc1ccc(O[C@H]2CC[C@H](NC(=O)c3ccc4c(c3)CN(C(=O)CN3CCC(n5ccc6c(N7CCC(=O)NC7=O)cccc65)CC3)C4)CC2)cc1Cl [AR6, N-((1r,4r)-4-(3-Chloro-4-cyanophenoxy)cyclohexyl)-2-(2-(4-(4-(2,4-dioxotetrahydropyrimidin-1(2H)-yl)-1H-indol-1-yl)piperidin-1-yl)acetyl)isoindoline-5-carboxamide] | ≥ 50%
10 | N#Cc1ccc(O[C@H]2CC[C@H](NC(=O)c3ccc(N4CCC(N5CCC(n6ccc7c(N8CCC(=O)NC8=O)cccc76)CC5)CC4)nn3)CC2)cc1Cl [AR7, N-((1r,4r)-4-(3-Chloro-4-cyanophenoxy)cyclohexyl)-6-(4-(4-(2,4-dioxotetrahydropyrimidin-1(2H)-yl)-1H-indol-1-yl)-[1,4′-bipiperidin]-1′-yl)pyridazine-3-carboxamide] | ≥ 50%
11 | CC1(C)[C@H](NC(=O)c2cnc(N3CCC(CN4CCC(n5ccc6c(N7CCC(=O)NC7=O)cccc65)CC4)CC3)cn2)C(C)(C)[C@H]1Oc1ccc(C#N)c(Cl)c1 [AR8, N-((1r,3r)-3-(3-Chloro-4-cyanophenoxy)-2,2,4,4-tetramethylcyclobutyl)-5-(4-((4-(4-(2,4-dioxotetrahydropyrimidin-1(2H)-yl)-1H-indol-1-yl)piperidin-1-yl)methyl)piperidin-1-yl)pyrazine-2-carboxamide] | ≥ 50%
12 | N#Cc1ccc(O[C@H]2CC[C@H](NC(=O)c3cnc(N4CCC(CN5CCC(n6ccc7c(N8CCC(=O)NC8=O)cccc76)CC5)CC4)nc3)CC2)cc1Cl [AR10, N-((1r,4r)-4-(3-Chloro-4-cyanophenoxy)cyclohexyl)-2-(4-((4-(4-(2,4-dioxotetrahydropyrimidin-1(2H)-yl)-1H-indol-1-yl)piperidin-1-yl)methyl)piperidin-1-yl)pyrimidine-5-carboxamide] | ≥ 50%
13 | N#Cc1ccc(O[C@H]2CC[C@H](NC(=O)c3ccc(N4CCC(CN5CCC(n6ccc7c(N8CCC(=O)NC8=O)cccc76)CC5)CC4)nc3)CC2)cc1C(F)(F)F [AR12, N-((1r,4r)-4-(4-Cyano-3-(trifluoromethyl)phenoxy)cyclohexyl)-6-(4-((4-(4-(2,4-dioxotetrahydropyrimidin-1(2H)-yl)-1H-indol-1-yl)piperidin-1-yl)methyl)piperidin-1-yl)nicotinamide] | ≥ 50%
14 | N#Cc1ccc(O[C@H]2CC[C@H](NC(=O)c3cnc(N4CCC(CN5CCC(n6ccc7c(N8CCC(=O)NC8=O)cncc76)CC5)CC4)cn3)CC2)cc1C(F)(F)F [AR15, N-((1r,4r)-4-(4-Cyano-3-(trifluoromethyl)phenoxy)cyclohexyl)-5-(4-((4-(4-(2,4-dioxotetrahydropyrimidin-1(2H)-yl)-1H-pyrrolo[2,3-c]pyridin-1-yl)piperidin-1-yl)methyl)piperidin-1-yl)pyrazine-2-carboxamide] | ≥ 50%
15 | N#Cc1ccc(O[C@H]2CC[C@H](NC(=O)c3cnc(N4CCC(CN5CCC(n6ccc7c(N8CCC(=O)NC8=O)cncc76)CC5)CC4)cn3)CC2)cc1Cl [AR16, N-((1r,4r)-4-(3-Chloro-4-cyanophenoxy)cyclohexyl)-5-(4-((4-(4-(2,4-dioxotetrahydropyrimidin-1(2H)-yl)-1H-pyrrolo[2,3-c]pyridin-1-yl)piperidin-1-yl)methyl)piperidin-1-yl)pyrazine-2-carboxamide] | ≥ 50%
16 | N#Cc1ccc(O[C@H]2CC[C@H](NC(=O)c3cnc(N4CCC(CN5CCC(n6ccc7c(N8CCC(=O)NC8=O)cncc76)CC5)CC4)nc3)CC2)cc1C(F)(F)F [AR17, N-((1r,4r)-4-(4-Cyano-3-(trifluoromethyl)phenoxy)cyclohexyl)-2-(4-((4-(4-(2,4-dioxotetrahydropyrimidin-1(2H)-yl)-1H-pyrrolo[2,3-c]pyridin-1-yl)piperidin-1-yl)methyl)piperidin-1-yl)pyrimidine-5-carboxamide] | ≥ 50%
17 | N#Cc1ccc(O[C@H]2CC[C@H](NC(=O)c3ccc(N4CCC(CN5CCC(n6ccc7c(N8CCC(=O)NC8=O)cncc76)CC5)CC4)nc3)CC2)cc1C(F)(F)F [AR19, N-((1r,4r)-4-(4-Cyano-3-(trifluoromethyl)phenoxy)cyclohexyl)-6-(4-((4-(4-(2,4-dioxotetrahydropyrimidin-1(2H)-yl)-1H-pyrrolo[2,3-c]pyridin-1-yl)piperidin-1-yl)methyl)piperidin-1-yl)nicotinamide] | ≥ 50%
18 | N#Cc1ccc(O[C@H]2CC[C@H](NC(=O)c3cnc(N4CCC(CN5CCC(n6ncc7c(N8CCC(=O)NC8=O)cc(F)cc76)CC5)CC4)nc3)CC2)cc1Cl [AR205, N-((1r,4r)-4-(3-Chloro-4-cyanophenoxy)cyclohexyl)-2-(4-((4-(4-(2,4-dioxotetrahydropyrimidin-1(2H)-yl)-6-fluoro-1H-indazol-1-yl)piperidin-1-yl)methyl)piperidin-1-yl)pyrimidine-5-carboxamide] | ≥ 50%
19 | N#Cc1ccc(O[C@H]2CC[C@H](NC(=O)c3ccc(N4CCN(C[C@H]5CC[C@H](n6ccc7c(N8CCC(=O)NC8=O)cccc76)CC5)CC4)nn3)CC2)cc1Cl [AR215, N-((1r,4r)-4-(3-Chloro-4-cyanophenoxy)cyclohexyl)-6-(4-(((1r,4r)-4-(4-(2,4-dioxotetrahydropyrimidin-1(2H)-yl)-1H-indol-1-yl)cyclohexyl)methyl)piperazin-1-yl)pyridazine-3-carboxamide hydrochloride] | ≥ 50%
